Results reported in patent US4599325A, “Substituted tyrosyl alanine dipeptide amides” (G. D. Searle & Co., priority 1985, dated 1986).
Structures can show the parent of a compound that is named as a salt.

Assays:
[1] = system: spontaneous hypertensive rats (SHR); experiment: Hypertensive test in spontaneous hypertensive rats (SHR); type: in vivo, rat; parameters: key to Antihypertensive Properties, Result: Active: Any compound that resulted in a decrease in arterial blood pressure of 20 mm Hg or greater was considered active; conditions: for Antihypertensive Properties, Result: Table 3, 10 mg/kg intravenously, one unanesthetized male SHR
Protocol: A compound's ability to act as an antihypertensive agent was determined using spontaneous hypertensive rats (SHR). Male SHR were maintained in-house for 1 or more weeks before use and were between 11 and 16 weeks old. The test compound was administered intravenously and the initial mean arterial blood pressure was measured directly via an arterial catheter implanted immediately before administration of the compound. Blood pressure readings were made 5, 10 and 15 minutes after administration of the compound. […] Statistical comparisons were made using the unpaired student's test.
The following compounds of the invention were evaluated for their antihypertensive properties using the spontaneous hypertensive rat (SHR). […] The SHR test was essentially that described earlier. Each compound listed in Table 3, was administered intravenously to one unanesthetized, male, spontaneously hypertensive rat; the dosage was 10 mg/kg.

[2] = molecular target: opiate receptors; experiment: Opiate binding assay (displacement of 3H-Naloxone); parameters: species or system rat; conditions: for IC50: Table 1, 3H-Naloxone, rat brain membranes
Protocol: The test compounds were evaluated for their ability to displace the binding of ^3 H-Naloxone to opiate receptors isolate from rat brain. Male rats [COBS CD(SD)BR] obtained from Charles River Laboratories (Portage, MI) were sacrificed by cervical dislocation. A purified homogenate of receptor membranes was prepared from the brains according to the method described by Chang and Cuatrecasas. (K.-J. Chang and P. Cuatrecases. Multiple Opiate Receptors: Enkephalins And Morphine Bind To Receptors Of Different Specificity. J. Biol. Chem. 254, 2610-2618 (1979).) The brains were homogenized in 10 volumes of 0.32M sucrose and centrifuged twice at 6,000×g for 15 minutes. Following centrifugation of the supernatants at 40,000×g for 30 minutes, the pellets were allowed to swell, then centrifuged at 6,000 and 40,000×g. This process was repeated. The final pellet was resuspended in 2 volumes of 50 mM tris HCl (pH 7.4). The homogenate was assayed for protein content according to the method of Itzhaki and Gill. R. F. Itzhaki and D. M. Gill. A Micro-Biuret Method for Estimating Proteins. Anal. Biochem. 9, […] (1964).
The binding of the test compounds to the receptor membrane preparation was measured using a modification of the method of Pert and Snyder. C. B. Pert and S. H. Snyder. Properties of Opiate-Receptor Binding in Rat Brain. Proc. Natl. Acad. Sci. 70, 2243-2247 (1973). The receptor assay was run using 1 nM ^3 H-Naloxone and 2 ml of tissue homogenate (0.5 mg/ml protein concentration). Levorphanol (1×10^-5 M) was used as the displacer for non-specific binding. Both the displacer and the test compounds were added in 0.02 ml volumes. The assay was run in 0.05M tris HCl (pH 7.4) ±100 mM NaCl. Total assay volume was 2.03 ml.
Samples were incubated at 25° C. for 60 min., cooled on ice 5 min. and subsequently filtered over Whatman GF/C glass fiber filters with 2.4 ml washes of cold buffer. The filters were then solubilized in 1 ml of NCS at 50° C. for 1 hour. After solubilization, the pH was adjusted with 0.1 ml of glacial acetic acid, 10 ml of PCS was added and the samples were counted in a Nuclear Chicago Mark II liquid scintillation counter. This method was used for the following test compounds: Example 4, Example 5, Example 27, Example 28, Example 38, Example 39, and the prior art compound (4).
A modification of this method was used for the following test compounds: Example 16, Example 17, Example 21, Example 22, Example 24, Example 30, Example 31. In this modification, the total assay volume was adjusted to 1.0 ml. Samples were cooled on ice for 10 minutes and dried at 50° C. for 30 minutes, then 10 mls of PCS was added and the samples counted in a liquid scinitillation counter.
The IC50 values, the concentration of the test compounds which inhibited ^3 H-Naloxone specific binding to the opiate receptor by 50%, were obtained from log-probit plots of concentration-response curves. D. J. Finney. Probit Analysis. Cambridge University Press, London, 1947.

[3] = molecular target: T1, mu opiate receptor (Rattus norvegicus, UniProt P33535); experiment: Mu opiate receptor binding (3H-Dihydromorphine); conditions: Table 2; 3H-Dihydromorphine 0.2 nM, rat brain
T1 construct: The receptor membrane homogenate was prepared using rat brain; from tissue; host or cells: rat brain membrane homogenate
T1 sequence (P33535 whole entry): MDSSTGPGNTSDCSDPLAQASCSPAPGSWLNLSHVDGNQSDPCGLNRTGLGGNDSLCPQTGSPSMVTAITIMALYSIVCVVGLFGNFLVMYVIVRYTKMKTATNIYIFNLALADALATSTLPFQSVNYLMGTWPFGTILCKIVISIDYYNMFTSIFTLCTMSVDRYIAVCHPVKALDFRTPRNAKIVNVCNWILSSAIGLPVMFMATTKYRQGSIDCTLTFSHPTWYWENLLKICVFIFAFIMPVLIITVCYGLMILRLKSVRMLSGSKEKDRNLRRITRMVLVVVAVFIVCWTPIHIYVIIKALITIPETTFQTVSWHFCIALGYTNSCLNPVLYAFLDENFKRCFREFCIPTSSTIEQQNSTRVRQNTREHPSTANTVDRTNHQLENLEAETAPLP
Protocol: Several subtypes of opiate receptors have been identified. These multiple receptors are thought to mediate the different effects of opiates, e.g., mu receptors are believed to mediate the analgesic activity of opiates. Therefore, the relative affinities of the test compounds for the mu and the delta opiate receptors was determined. The receptor membrane homogenate was prepared using rat brain as previously described in this document. The binding assays for the mu and delta receptors were performed using a modification of the method described by Chang and Cuatrecasas. K.-J. Chang and P. Cuatrecasas. Multiple Opiate receptors: enkephalins and morphine bind to receptors of different specificity, J. Biol. Chem. 254, 2610-2618 (1979). The incubation mixtures contained 0.75 ml of homogenate (1 mg protein/ml) and 0.05 ml of ^3 H-Dihydromorphine (final concentration of 0.2 nM) or 0.05 ml ^3 H-(D)-Ala^2 -(D)-Leu^5 enkephalin (final concentration of 0.2 nM). Both the displacer, naloxone, and the test compounds were added in 0.1 ml volumes. Finally, […] tris-HCl buffer (pH 7.4 at 25° C.) was added to bring the total volume up to 1 ml. The mixture were then incubated 60 minutes at 25° C. before filtering.
The IC50 values, i.e., the concentration of the test compound that inhibited ligand specific binding to its receptor by 50%, were calculated using log-probit analysis, D. J. Finney. […]

Compound | SHR Blood Pressure, dose printed (active at) ([1]; Table 2, i.v.) [mg/kg] | Antihypertensive Properties, Result [1] | IC50 ([2]; hydrochloride) [nM] | affinity to the opiate receptor relative to the prior art compound ([2]; greater affinity than prior art compound) | IC50 [3] [nM] | SHR Blood Pressure, activity at stated dose ([1]; Table 2, 10 mg/kg i.v.) | IC50 [2] [nM]
Cc1cc(O)cc(C)c1C[C@H](N)C(=O)N[C@H](C)C(=O)NCCCc1ccccc1 [Example 5, 2,6-dimethyltyrosyl-N-(3-phenylpropyl)-D-alaninamide, hydrochloride] | 1 | Active | 27 | tenfold | 0.1 | – | –
tyrosine-D-alanine-phenylpropylamide [Prior Art, reference compound] | – | Active | – | – | 8.8 | Active | 430
